Reference: ChEMBL document CHEMBL3632525, “Decorated 6,6,7,7-tetrahydro-1H,1H-2,3-biindole scaffold as promising candidate for recognition of the CDK2 allosteric site” (Medchemcomm, 2015)
Calls of active or inactive are those of the source. The calls are words filed in the database; no cut-off is given here.

Legend:
[1] = system: Vero; assay: Cytotoxicity against African green monkey Vero cells assessed as reduction of cell viability at 80 to 100 uM by CellTiter-Glo luminescent assay; type: cell-based; settings: chlorocebus sabaeus, TDE = time-dependent effect
[2] = system: HEp-2; assay: Cytotoxicity against human Hep2 cells assessed as reduction of cell viability at 80 to 100 uM by CellTiter-Glo luminescent assay; type: functional, cell-based; settings: TDE = time-dependent effect
[3] = system: HEK-293T; assay: Cytotoxicity against HEK293T cells assessed as reduction of cell viability at 80 to 100 uM by CellTiter-Glo luminescent assay; type: functional, cell-based; settings: Homo sapiens, TDE = time-dependent effect
[4] = system: Vero; assay: Cytotoxicity against African green monkey Vero cells assessed as reduction of cell viability after 24 to 72 hrs by CellTiter-Glo luminescent assay; type: cell-based; settings: chlorocebus sabaeus
[5] = system: HEp-2; assay: Cytotoxicity against human Hep2 cells assessed as reduction of cell viability after 24 to 72 hrs by CellTiter-Glo luminescent assay; type: functional, cell-based
[6] = system: HEK-293T; assay: Cytotoxicity against HEK293T cells assessed as reduction of cell viability after 24 to 72 hrs by CellTiter-Glo luminescent assay; type: functional, cell-based; settings: Homo sapiens
[7] = system: Vero; assay: Inhibition of CDK2 phosphorylation in African green monkey Vero cells at 100 uM after 24 hrs by Western blot analysis relative to control; type: cell-based; settings: Chlorocebus sabaeus
[8] = biological target: T1, Cyclin-dependent kinase 2 (Homo sapiens, UniProt P24941); assay: Inhibition of CDK2 phosphorylation in human Hep2 cells at 100 uM after 24 hrs by Western blot analysis relative to control; type: cell-based; settings: HEp-2
[9] = biological target: T1, Cyclin-dependent kinase 2; assay: Inhibition of CDK2 phosphorylation in HEK293T cells at 100 uM after 24 hrs by Western blot analysis relative to control; type: cell-based; settings: HEK-293T
[10] = system: Vero; assay: Inhibition of cyclin E phosphorylation in African green monkey Vero cells at 100 uM after 24 hrs by Western blot analysis relative to control; type: cell-based; settings: Chlorocebus sabaeus
[11] = biological target: G1/S-specific cyclin-E1 (Homo sapiens) (UniProt P24864); assay: Inhibition of cyclin E phosphorylation in human Hep2 cells at 100 uM after 24 hrs by Western blot analysis relative to control; type: cell-based; settings: HEp-2
G1/S-specific cyclin-E1 (Homo sapiens), sequence (P24864 whole entry): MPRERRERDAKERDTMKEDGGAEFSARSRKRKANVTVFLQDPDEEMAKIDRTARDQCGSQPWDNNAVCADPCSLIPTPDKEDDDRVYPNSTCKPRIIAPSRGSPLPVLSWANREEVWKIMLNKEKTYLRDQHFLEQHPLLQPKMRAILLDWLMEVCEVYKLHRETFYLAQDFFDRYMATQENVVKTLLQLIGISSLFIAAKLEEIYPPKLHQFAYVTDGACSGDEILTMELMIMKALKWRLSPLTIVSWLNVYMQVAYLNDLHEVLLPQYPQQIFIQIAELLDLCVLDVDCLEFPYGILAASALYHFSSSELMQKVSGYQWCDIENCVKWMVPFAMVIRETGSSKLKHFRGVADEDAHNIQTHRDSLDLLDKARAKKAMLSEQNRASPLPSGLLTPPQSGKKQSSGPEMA

[12] = biological target: G1/S-specific cyclin-E1 (Homo sapiens) (UniProt P24864); assay: Inhibition of cyclin E phosphorylation in HEK293T cells at 100 uM after 24 hrs by Western blot analysis relative to control; type: cell-based; settings: HEK-293T
[13] = system: Vero; assay: Inhibition of CDK2/Cyclin E in African green monkey Vero cells assessed as reduction of hyperphosphorylated pRB expression at 100 uM after 24 hrs by Western blot analysis relative to control; type: cell-based; settings: Chlorocebus sabaeus
[14] = biological target: T2, Cyclin-dependent kinase 2/cyclin E1 (Homo sapiens) (UniProt P24864+P24941); assay: Inhibition of CDK2/Cyclin E in human Hep2 cells assessed as reduction of hyperphosphorylated pRB expression at 100 uM after 24 hrs by Western blot analysis relative to control; type: cell-based; settings: HEp-2
[15] = biological target: T2, Cyclin-dependent kinase 2/cyclin E1 (Homo sapiens); assay: Inhibition of CDK2/Cyclin E in HEK293T cells assessed as reduction of hyperphosphorylated pRB expression at 100 uM after 24 hrs by Western blot analysis relative to control; type: cell-based; settings: HEK-293T
[16] = biological target: T2, Cyclin-dependent kinase 2/cyclin E1 (Homo sapiens); assay: Inhibition of CDK2/Cyclin E in HEK293T cells assessed as reduction of EGF-stimulated E2F pathway after 24 hrs by dual-Glo luciferase reporter gene assay relative to control; type: cell-based; settings: HEK-293T
[17] = biological target: T1, Cyclin-dependent kinase 2; assay: Binding affinity to CDK2 allosteric site (unknown origin)

Cc1[nH]c2c(c1C1(C)NC3=C(C(=O)CC(c4ccccc4)C3)C1=O)C(=O)CC(c1ccccc1)C2 (configuration not stated)
Activity [1]: tde
Activity [2]: tde
Activity [3]: tde
Activity [4]: Dose-dependent effect
Activity [5]: Dose-dependent effect
Activity [6]: Dose-dependent effect
inhibition [7]: Active
inhibition [8]: Active
inhibition [9]: Active
inhibition [10]: Active
inhibition [11]: Active
inhibition [12]: Active
inhibition [13]: Active
inhibition [14]: Active
inhibition [15]: Active
inhibition [16]: Dose-dependent effect
IC50 [17]: > 91 µM
